Laboratory results from ChEMBL document CHEMBL1909046, “DrugMatrix in vitro pharmacology data”.

Columns and labels:
[1] = molecular target: T1, 5-hydroxytryptamine receptor 2C (Homo sapiens, UniProt P28335); assay: DRUGMATRIX: Serotonin (5-Hydroxytryptamine) 5-HT2C radioligand binding (ligand: [3H] Mesulergine); type: cell membranes, CHO-K1, Membrane; conditions: cho-k1; Not Active = under 50% inhibition at 10 µM
T1 sequence (P28335 whole entry): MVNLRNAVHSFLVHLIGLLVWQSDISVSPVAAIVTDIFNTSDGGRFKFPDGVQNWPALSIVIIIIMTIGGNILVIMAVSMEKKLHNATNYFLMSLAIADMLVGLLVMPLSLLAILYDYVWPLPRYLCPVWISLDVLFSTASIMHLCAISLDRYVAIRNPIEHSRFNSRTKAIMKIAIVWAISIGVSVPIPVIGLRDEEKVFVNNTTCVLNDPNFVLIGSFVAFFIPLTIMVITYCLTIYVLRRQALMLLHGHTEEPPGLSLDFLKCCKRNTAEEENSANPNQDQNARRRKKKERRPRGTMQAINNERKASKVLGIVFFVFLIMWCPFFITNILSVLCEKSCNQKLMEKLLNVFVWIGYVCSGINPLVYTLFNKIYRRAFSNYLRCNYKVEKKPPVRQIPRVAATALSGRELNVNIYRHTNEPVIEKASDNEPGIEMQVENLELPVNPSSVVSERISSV

[2] = molecular target: C-C chemokine receptor type 2 (Homo sapiens, UniProt P41597); type: cell membranes, CHO-K1, Membrane; conditions: cho-k1; note: in other assays of this panel Not Active means under 50% inhibition at 10 µM
[3] = molecular target: T2, C-C chemokine receptor type 4 (Homo sapiens, UniProt P51679); type: cell membranes, Membrane; conditions: chem-1; note: in other assays of this panel Not Active means under 50% inhibition at 10 µM
T2 sequence (P51679 whole entry): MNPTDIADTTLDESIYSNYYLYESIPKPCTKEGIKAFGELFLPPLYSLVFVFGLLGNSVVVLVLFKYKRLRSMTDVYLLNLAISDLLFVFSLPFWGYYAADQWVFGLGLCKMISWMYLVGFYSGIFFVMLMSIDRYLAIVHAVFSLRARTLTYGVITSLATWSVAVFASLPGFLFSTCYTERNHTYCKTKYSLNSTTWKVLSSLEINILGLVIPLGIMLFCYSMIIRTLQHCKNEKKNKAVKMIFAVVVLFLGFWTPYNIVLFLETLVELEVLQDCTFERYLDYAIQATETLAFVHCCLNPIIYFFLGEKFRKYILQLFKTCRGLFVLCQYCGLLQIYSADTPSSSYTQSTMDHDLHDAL

[4] = molecular target: Glycine receptor (Rattus norvegicus, UniProt P22771+P24524+P07727+P20781); type: cell membranes, Wistar, Spinal cord, Membrane; note: in other assays of this panel Not Active means under 50% inhibition at 10 µM
[5] = molecular target: Melanocortin receptor 4 (Homo sapiens, UniProt P32245); type: cell membranes, Membrane; conditions: hek293; note: in other assays of this panel Not Active means under 50% inhibition at 10 µM
[6] = molecular target: cGMP-specific 3',5'-cyclic phosphodiesterase (Homo sapiens, UniProt O76074); assay: DRUGMATRIX: Phosphodiesterase PDE5 enzyme inhibition (substrate: [3H]cGMP + cGMP); type: tissue-based; conditions: platelet; Not Active = under 50% inhibition at 10 µM
[7] = molecular target: Receptor tyrosine-protein kinase erbB-2 (Homo sapiens, UniProt P04626); assay: biochemical; type: cell-based, Insect cells; conditions: insect cells
Chain of Receptor tyrosine-protein kinase erbB-2 (P04626 whole entry): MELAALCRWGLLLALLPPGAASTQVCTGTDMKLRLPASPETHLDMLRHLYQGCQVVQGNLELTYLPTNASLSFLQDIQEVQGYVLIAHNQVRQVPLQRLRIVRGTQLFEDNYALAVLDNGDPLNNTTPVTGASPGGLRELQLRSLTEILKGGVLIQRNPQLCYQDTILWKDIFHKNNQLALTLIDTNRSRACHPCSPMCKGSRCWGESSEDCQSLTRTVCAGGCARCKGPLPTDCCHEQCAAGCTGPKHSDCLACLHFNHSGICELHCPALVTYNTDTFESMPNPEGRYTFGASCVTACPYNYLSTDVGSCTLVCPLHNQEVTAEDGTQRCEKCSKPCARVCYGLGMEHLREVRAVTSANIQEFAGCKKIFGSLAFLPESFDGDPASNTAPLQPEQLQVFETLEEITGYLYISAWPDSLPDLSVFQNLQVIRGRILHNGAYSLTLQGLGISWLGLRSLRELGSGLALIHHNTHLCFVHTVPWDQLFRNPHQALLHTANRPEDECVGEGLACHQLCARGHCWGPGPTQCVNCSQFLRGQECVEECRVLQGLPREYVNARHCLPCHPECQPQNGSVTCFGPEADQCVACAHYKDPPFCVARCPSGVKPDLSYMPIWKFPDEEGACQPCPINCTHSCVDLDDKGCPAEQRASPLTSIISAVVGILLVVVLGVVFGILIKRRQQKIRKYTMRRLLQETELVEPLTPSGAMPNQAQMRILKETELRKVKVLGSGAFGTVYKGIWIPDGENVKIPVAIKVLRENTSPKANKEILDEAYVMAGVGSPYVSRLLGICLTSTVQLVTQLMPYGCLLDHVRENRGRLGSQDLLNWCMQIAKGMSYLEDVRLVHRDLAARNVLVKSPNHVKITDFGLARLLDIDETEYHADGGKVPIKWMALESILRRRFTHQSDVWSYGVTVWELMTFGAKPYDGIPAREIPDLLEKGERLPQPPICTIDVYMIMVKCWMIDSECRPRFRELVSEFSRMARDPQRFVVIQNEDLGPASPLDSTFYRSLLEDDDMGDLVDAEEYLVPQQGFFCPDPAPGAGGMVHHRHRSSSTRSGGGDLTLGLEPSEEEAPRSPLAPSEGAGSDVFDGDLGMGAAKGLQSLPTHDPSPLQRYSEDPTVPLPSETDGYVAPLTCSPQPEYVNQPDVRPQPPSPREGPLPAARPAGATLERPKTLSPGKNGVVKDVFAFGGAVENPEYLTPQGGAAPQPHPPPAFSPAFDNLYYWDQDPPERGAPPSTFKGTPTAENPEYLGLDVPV

Chain of C-C chemokine receptor type 2 (P41597 whole entry): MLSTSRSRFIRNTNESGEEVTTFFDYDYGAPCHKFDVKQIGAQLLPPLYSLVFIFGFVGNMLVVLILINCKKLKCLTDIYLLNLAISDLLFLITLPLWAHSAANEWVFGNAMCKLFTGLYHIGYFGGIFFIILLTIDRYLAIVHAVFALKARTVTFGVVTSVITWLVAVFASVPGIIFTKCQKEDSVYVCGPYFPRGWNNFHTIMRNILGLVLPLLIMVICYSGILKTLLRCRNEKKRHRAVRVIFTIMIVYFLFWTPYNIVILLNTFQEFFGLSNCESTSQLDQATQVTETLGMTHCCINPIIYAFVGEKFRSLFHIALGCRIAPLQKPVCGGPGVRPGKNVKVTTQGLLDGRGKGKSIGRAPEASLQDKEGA
Chain of Melanocortin receptor 4 (P32245 whole entry): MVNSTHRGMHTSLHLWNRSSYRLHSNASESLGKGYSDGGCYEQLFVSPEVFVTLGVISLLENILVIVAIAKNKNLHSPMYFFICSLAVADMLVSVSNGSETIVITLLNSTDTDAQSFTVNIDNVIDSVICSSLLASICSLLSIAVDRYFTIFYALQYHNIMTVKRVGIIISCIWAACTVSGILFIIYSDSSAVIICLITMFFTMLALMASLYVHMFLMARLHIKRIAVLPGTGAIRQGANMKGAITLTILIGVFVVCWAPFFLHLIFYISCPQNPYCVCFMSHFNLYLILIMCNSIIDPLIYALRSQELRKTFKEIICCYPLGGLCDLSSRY

COc1cc2c(c3oc(=O)c4c(c13)CCC4=O)[C@@H]1C=CO[C@@H]1O2 [AFLATOXIN]
Not Active: IC50 [1] | Ki [1] | IC50 [2] | Ki [2] | IC50 [3] | Ki [3] | IC50 [4] | Ki [4] | IC50 [5] | Ki [5] | IC50 [6] | Ki [6] | IC50 [7] | Ki [7]

N=C(N)NC(=O)c1nc(Cl)c(N)nc1N [AMILORIDE]
Not Active: IC50 [1] | IC50 [2] | IC50 [3] | IC50 [4] | IC50 [5] | IC50 [6] | IC50 [7]

Cc1cc(=O)n(-c2ccccc2)n1C [ANTIPYRINE]
Not Active: IC50 [1] | IC50 [2] | IC50 [3] | IC50 [4] | IC50 [5] | IC50 [6] | IC50 [7]

CN1C(=O)COc2c(C(=O)NC3CN4CCC3CC4)cc(Cl)cc21 (centres undefined) [AZASETRON]
Not Active: IC50 [1] | IC50 [2] | IC50 [3] | IC50 [4] | IC50 [5] | IC50 [6] | IC50 [7]

C[C@H]1C[C@H]2[C@@H]3CCC4=CC(=O)C=C[C@]4(C)[C@@]3(Cl)[C@@H](O)C[C@]2(C)[C@@]1(O)C(=O)CO [BECLOMETHASONE]
Not Active: IC50 [1] | IC50 [2] | IC50 [3] | IC50 [4] | IC50 [5] | IC50 [6] | IC50 [7]

CCOC(=O)[C@H](CCc1ccccc1)N[C@H]1CCc2ccccc2N(CC(=O)O)C1=O [BENAZEPRIL]
Not Active: IC50 [1] | IC50 [2] | IC50 [3] | IC50 [4] | IC50 [5] | IC50 [6] | IC50 [7]

Nc1c(CC(=O)O)cccc1C(=O)c1ccc(Br)cc1 [BROMFENAC]
Not Active: IC50 [1] | IC50 [2] | IC50 [3] | IC50 [4] | IC50 [5] | IC50 [6] | IC50 [7]

CCCCN1CCCCC1C(=O)Nc1c(C)cccc1C.Cl (centres undefined) [BUPIVACAINE HYDROCHLORIDE]
Not Active: IC50 [1] | IC50 [2] | IC50 [3] | IC50 [4] | IC50 [5] | IC50 [6] | IC50 [7]

O=C1CC2(CCCC2)CC(=O)N1CCCCN1CCN(c2ncccn2)CC1 [BUSPIRONE]
Not Active: IC50 [1] | IC50 [2] | IC50 [3] | IC50 [4] | IC50 [5] | IC50 [6] | IC50 [7]

C[C@@]12C(=O)OC(=O)[C@]1(C)[C@H]1CC[C@@H]2O1 [CANTHARIDIN]
Not Active: IC50 [1] | IC50 [2] | IC50 [3] | IC50 [4] | IC50 [5] | IC50 [6] | IC50 [7]

O=NN(CCCl)C(=O)NCCCl [CARMUSTINE]
Not Active: IC50 [1] | IC50 [2] | IC50 [3] | IC50 [4] | IC50 [5] | IC50 [6] | IC50 [7]

CC1=C(C(=O)O)N2C(=O)[C@@H](NC(=O)[C@H](N)c3ccccc3)[C@H]2SC1 [CEPHALEXIN ANHYDROUS]
Not Active: IC50 [1] | IC50 [2] | IC50 [3] | IC50 [4] | IC50 [5] | IC50 [6] | IC50 [7]

O=C(N[C@H](CO)[C@H](O)c1ccc([N+](=O)[O-])cc1)C(Cl)Cl [CHLORAMPHENICOL]
Not Active: IC50 [1] | IC50 [2] | IC50 [3] | IC50 [4] | IC50 [5] | IC50 [6] | IC50 [7]

ClC(Cl)Cl [CHLOROFORM]
Not Active: IC50 [1] | IC50 [2] | IC50 [3] | IC50 [4] | IC50 [5] | IC50 [6] | IC50 [7]

C=C1CC[C@H](O)C/C1=C/C=C1\CCC[C@]2(C)[C@@H]([C@H](C)CCCC(C)C)CC[C@@H]12 [CHOLECALCIFEROL]
Not Active: IC50 [1] | IC50 [2] | IC50 [3] | IC50 [4] | IC50 [5] | IC50 [6] | IC50 [7]

C[N+](C)(C)CCO.[Cl-] [CHOLINE CHLORIDE]
Not Active: IC50 [1] | IC50 [2] | IC50 [3] | IC50 [4] | IC50 [5] | IC50 [6] | IC50 [7]

CCOC(=O)C(C)(C)Oc1ccc(Cl)cc1 [CLOFIBRATE]
Not Active: IC50 [1] | IC50 [2] | IC50 [3] | IC50 [4] | IC50 [5] | IC50 [6] | IC50 [7]

CC(=O)OCC(=O)[C@@]1(O)CC[C@H]2[C@@H]3CCC4=CC(=O)CC[C@]4(C)[C@H]3C(=O)C[C@@]21C [CORTISONE ACETATE]
Not Active: IC50 [1] | IC50 [2] | IC50 [3] | IC50 [4] | IC50 [5] | IC50 [6] | IC50 [7]

O=c1ccc2ccccc2o1 [COUMARIN]
Not Active: IC50 [1] | IC50 [2] | IC50 [3] | IC50 [4] | IC50 [5] | IC50 [6] | IC50 [7]

C[C@@H]1C[C@@H]([C@H](O)CC2CC(=O)NC(=O)C2)C(=O)[C@@H](C)C1 [CYCLOHEXIMIDE]
Not Active: IC50 [1] | IC50 [2] | IC50 [3] | IC50 [4] | IC50 [5] | IC50 [6] | IC50 [7]

C/C=C/C[C@@H](C)[C@@H](O)[C@H]1C(=O)N[C@@H](CC)C(=O)N(C)CC(=O)N(C)[C@@H](CC(C)C)C(=O)N[C@@H](C(C)C)C(=O)N(C)[C@@H](CC(C)C)C(=O)N[C@@H](C)C(=O)N[C@H](C)C(=O)N(C)[C@@H](CC(C)C)C(=O)N(C)[C@@H](CC(C)C)C(=O)N(C)[C@@H](C(C)C)C(=O)N1C [CYCLOSPORINE]
Not Active: IC50 [1] | IC50 [2] | IC50 [3] | IC50 [4] | IC50 [5] | IC50 [6] | IC50 [7]
